Legend:
wheat = assay: Test A pre-/postemergence greenhouse test; type: in vivo, Triticum aestivum; details: for Wheat plant response rating: 0 to 100 scale; for Plant response rating, Wheat: 0 to 100 scale where 0 is no effect and 100 is complete control
How it was run: (§1)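 Test compounds in non-phytotoxic solvent with surfactant were applied as a preemergence soil spray to seeded loam/sand pots and, concurrently, postemergence to plants at 2–10 cm, one- to two-leaf stage. About ten days in greenhouse, then injury visually rated against untreated controls.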

rice = assay: Test C flooded paddy test; type: in vivo, Oryza sativa; details: Flood
How it was run: (§2)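 Test compounds are applied straight into paddy water held 3 cm above the soil surface, with that flood maintained for the whole test. After 13 to 15 days in the greenhouse, each species is scored visually relative to controls.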

corn = assay: Test A pre-/postemergence greenhouse test; type: in vivo, Zea mays; details: for Corn plant response rating: 0 to 100 scale; for Plant response rating, Corn: 0 to 100 scale where 0 is no effect and 100 is complete control
How it was run: as §1

barnyardgrass [1] = assay: Test C flooded paddy test; type: in vivo, Echinochloa crus-galli; details: Flood
How it was run: as §2

morningglory = assay: Test A pre-/postemergence greenhouse test; type: in vivo, Ipomoea spp.; details: for Morningglory plant response rating: 0 to 100 scale; for Plant response rating, Morningglory: 0 to 100 scale where 0 is no effect and 100 is complete control
How it was run: as §1

velvetleaf = assay: Test A pre-/postemergence greenhouse test; type: in vivo, Abutilon theophrasti; details: for Velvetleaf plant response rating: 0 to 100 scale; for Plant response rating, Velvetleaf: 0 to 100 scale where 0 is no effect and 100 is complete control
How it was run: as §1

redroot pigweed = assay: Test A pre-/postemergence greenhouse test; type: in vivo, Amaranthus retroflexus; details: for Pigweed plant response rating: 0 to 100 scale; for Plant response rating, Pigweed: 0 to 100 scale where 0 is no effect and 100 is complete control
How it was run: as §1

giant foxtail = assay: Test A pre-/postemergence greenhouse test; type: in vivo, Setaria faberi; details: for Foxtail, Giant plant response rating: 0 to 100 scale; for Plant response rating, Foxtail, Giant: 0 to 100 scale where 0 is no effect and 100 is complete control
How it was run: as §1

barnyardgrass [2] = assay: Test A pre-/postemergence greenhouse test; type: in vivo, Echinochloa crus-galli; details: for Barnyardgrass plant response rating: 0 to 100 scale; for Plant response rating, Barnyardgrass: 0 to 100 scale where 0 is no effect and 100 is complete control
How it was run: as §1

crabgrass = assay: Test A pre-/postemergence greenhouse test; type: in vivo, Digitaria sanguinalis; details: for Crabgrass, Large plant response rating: 0 to 100 scale; for Plant response rating, Crabgrass, Large: 0 to 100 scale where 0 is no effect and 100 is complete control
How it was run: as §1

duck salad = assay: Test C flooded paddy test; type: in vivo, Heteranthera limosa; details: Flood
How it was run: as §2

umbrella sedge = assay: Test C flooded paddy test; type: in vivo, Cyperus difformis; details: Flood
How it was run: as §2

[3] = Postemergence, 125 g ai/ha, 0 is no effect, 100 is complete control
[4] = Postemergence, 500 g ai/ha, 0 is no effect, 100 is complete control
[5] = Preemergence, 125 g ai/ha, 0 no effect, 100 complete control
[6] = 31 g ai/ha, scale 0 to 100 (0 no effect, 100 complete control)
[7] = 62 g ai/ha, scale 0 to 100, 0 no effect, 100 complete control, 13 to 15 days
[8] = 125 g ai/ha, scale 0 to 100, 0 no effect, 100 complete control, 13 to 15 days
[9] = 250 g ai/ha, scale 0 to 100 (0 no effect, 100 complete control)
[10] = 62 g ai/ha, scale 0 to 100 (0 no effect, 100 complete control)
[11] = 250 g ai/ha, scale 0 to 100, 0 no effect, 100 complete control, 13 to 15 days

Cc1cc[n+]([O-])c([S+]([O-])C(C)c2c(C(F)(F)F)nn(C)c2Cl)c1 (mixture of isomers) [Compound 15]
Wheat plant response rating (wheat; [3]): 0
Wheat plant response rating (wheat; [4]): 0
Wheat plant response rating (wheat; [5]): 0
Plant response rating, Wheat (wheat; Preemergence, 500 g ai/ha): 0
Plant response rating, Rice (rice; [6]): 0
Plant response rating, Rice (rice; [7]): 0
Plant response rating, Rice (rice; [8]): 0
Plant response rating, Rice (rice; [9]): 0
Corn plant response rating (corn; [3]): 0
Corn plant response rating (corn; [4]): 0
Corn plant response rating (corn; [5]): 0
Plant response rating, Corn (corn; Preemergence, 500 g ai/ha): 0
Plant response rating, Barnyardgrass (barnyardgrass [1]; [6]): 20
Plant response rating, Barnyardgrass (barnyardgrass [1]; [7]): 20
Plant response rating, Barnyardgrass (barnyardgrass [1]; [8]): 20
Plant response rating, Barnyardgrass (barnyardgrass [1]; [9]): 20
Morningglory plant response rating (morningglory; [3]): 0
Morningglory plant response rating (morningglory; [4]): 0
Morningglory plant response rating (morningglory; [5]): 0
Plant response rating, Morningglory (morningglory; Preemergence, 500 g ai/ha): 0
Velvetleaf plant response rating (velvetleaf; [3]): 0
Velvetleaf plant response rating (velvetleaf; [4]): 0
Velvetleaf plant response rating (velvetleaf; [5]): 0
Plant response rating, Velvetleaf (velvetleaf; Preemergence, 500 g ai/ha): 0
Pigweed plant response rating (redroot pigweed; [3]): 0
Pigweed plant response rating (redroot pigweed; [4]): 0
Plant response rating, Pigweed (redroot pigweed; Preemergence, 500 g ai/ha): 0
Foxtail, Giant plant response rating (giant foxtail; [3]): 0
Foxtail, Giant plant response rating (giant foxtail; [4]): 0
Foxtail, Giant plant response rating (giant foxtail; [5]): 0
Plant response rating, Foxtail, Giant (giant foxtail; Preemergence, 500 g ai/ha): 0
Barnyardgrass plant response rating (barnyardgrass [2]; [3]): 0
Barnyardgrass plant response rating (barnyardgrass [2]; [4]): 0
Barnyardgrass plant response rating (barnyardgrass [2]; [5]): 0
Plant response rating, Barnyardgrass (barnyardgrass [2]; Preemergence, 500 g ai/ha): 0
Crabgrass, Large plant response rating (crabgrass; [3]): 0
Crabgrass, Large plant response rating (crabgrass; [4]): 0
Crabgrass, Large plant response rating (crabgrass; [5]): 0
Plant response rating, Crabgrass, Large (crabgrass; Preemergence, 500 g ai/ha): 20
Plant response rating, Ducksalad (duck salad; [6]): 20
Plant response rating, Ducksalad (duck salad; [7]): 80
Plant response rating, Ducksalad (duck salad; [8]): 80
Plant response rating, Sedge, Umbrella (umbrella sedge; [6]): 85
Plant response rating, Sedge, Umbrella (umbrella sedge; [7]): 85
Plant response rating, Sedge, Umbrella (umbrella sedge; [8]): 85

Cn1nc(C(F)(F)C(F)(F)F)c(CS(=O)(=O)c2cccc[n+]2[O-])c1OCC(F)(F)F [Compound 84]
Plant response rating, Wheat (wheat; Postemergence, 125 g ai/ha): 30
Wheat plant response rating (wheat; [4]): 60
Wheat plant response rating (wheat; [5]): 40
Plant response rating, Wheat (wheat; Preemergence, 500 g ai/ha): 100
Plant response rating, Rice (rice; [10]): 30
Plant response rating, Rice (rice; [11]): 65
Plant response rating, Corn (corn; Postemergence, 125 g ai/ha): 0
Corn plant response rating (corn; [4]): 40
Corn plant response rating (corn; [5]): 0
Plant response rating, Corn (corn; Preemergence, 500 g ai/ha): 30
Plant response rating, Barnyardgrass (barnyardgrass [1]; [10]): 15
Plant response rating, Barnyardgrass (barnyardgrass [1]; [11]): 60
Plant response rating, Morningglory (morningglory; Postemergence, 125 g ai/ha): 20
Morningglory plant response rating (morningglory; [4]): 70
Morningglory plant response rating (morningglory; [5]): 70
Plant response rating, Morningglory (morningglory; Preemergence, 500 g ai/ha): 90
Plant response rating, Velvetleaf (velvetleaf; Postemergence, 125 g ai/ha): 20
Velvetleaf plant response rating (velvetleaf; [4]): 70
Velvetleaf plant response rating (velvetleaf; [5]): 70
Plant response rating, Velvetleaf (velvetleaf; Preemergence, 500 g ai/ha): 100
Plant response rating, Pigweed (redroot pigweed; Postemergence, 125 g ai/ha): 40
Pigweed plant response rating (redroot pigweed; [4]): 70
Pigweed plant response rating (redroot pigweed; [5]): 60
Plant response rating, Pigweed (redroot pigweed; Preemergence, 500 g ai/ha): 100
Plant response rating, Foxtail, Giant (giant foxtail; Postemergence, 125 g ai/ha): 70
Foxtail, Giant plant response rating (giant foxtail; [4]): 80
Foxtail, Giant plant response rating (giant foxtail; [5]): 80
Plant response rating, Foxtail, Giant (giant foxtail; Preemergence, 500 g ai/ha): 100
Plant response rating, Barnyardgrass (barnyardgrass [2]; Postemergence, 125 g ai/ha): 70
Barnyardgrass plant response rating (barnyardgrass [2]; [4]): 80
Barnyardgrass plant response rating (barnyardgrass [2]; [5]): 90
Plant response rating, Barnyardgrass (barnyardgrass [2]; Preemergence, 500 g ai/ha): 100
Plant response rating, Crabgrass, Large (crabgrass; Postemergence, 125 g ai/ha): 70
Crabgrass, Large plant response rating (crabgrass; [4]): 80
Crabgrass, Large plant response rating (crabgrass; [5]): 60
Plant response rating, Crabgrass, Large (crabgrass; Preemergence, 500 g ai/ha): 90
Plant response rating, Ducksalad (duck salad; [10]): 75
Plant response rating, Ducksalad (duck salad; [11]): 85
Plant response rating, Sedge, Umbrella (umbrella sedge; [10]): 75
Plant response rating, Sedge, Umbrella (umbrella sedge; [11]): 100

Source: US20100298141A1, “SUBSTITUTED PYRIDINE N-OXIDE HERBICIDES” (E. I. DU PONT DE NEMOURS AND COMPANY, priority 2007, published 2010)
